Test results as given in patent EP1191024A1, “Thiadiazines and their use as inhibitors of metalloproteinases” (Tschesche, Harald, priority 2000, dated 2002).

Legend:
cdMMP-14 = biological target: T1, cdMMP-14 (Homo sapiens, UniProt P50281); experiment: MMP microfluorometric profiling assay (fluorogenic Mca-peptide substrate); format: biochemical
T1 construct: made in house; host or cells: E. coli
Description: (§1) The tested MMP enzymes were prepared more specifically in the laboratories of the applicants, with the exception of MMP-1. MMP-1 from human rheumatoid synovial fibroblasts was purchased from Calbiochem-Novabiochem Corporation, LaJolla. Preparation of the recombinant catalytic domain of human Gelatinase A (cdMMP-2): The catalytic domain of Pro-Gelatinase A was prepared using an E. coli expression system according to the method described by Kröger et al^[19]. The proenzyme was activated with 0.5 mM APMA at 37°C prior to use in the assay. Preparation of the recombinant catalytic domain of human neutrophile Collagenase (cdMMP-8^Met80): The enzyme was expressed in E. coli as an active variant by the method of Kleine et al^[20]. Preparation of PMNL-Gelatinase (MMP-9): Latent PMNL-pro-Gelatinase was prepared from human plasma buffy coat as described by Tschesche et al^[21]. PMNL-pro-Gelatinase was activated prior to use by incubation with Trypsin at 37°C for 10 min. Inactivation of Trypsin was accomplished with TKI. Preparation of the recombinant catalytic domain of human Macrophage Elastase (cdMMP-12): The catalytic domain of MMP-12 was expressed in E. coli. The overexpressed protein was isolated as inclusion bodies and the renatured protein was purified by affinity chromatography with a hydroxamate inhibitor coupled column as described^[22]. Preparation of the recombinant catalytic domain of human Collagenase-3 (cdMMP-13): Human pro-cdMMP-13 was prepared using an E. coli expression system according to the method described^[23]. The isolated pro-cdMMP-13 was activated prior to use by incubation with 5 mM HgCl2 for 2 h at 37°C. Preparation of the recombinant catalytic domain of Membrane-Type-1 MMP (cdMMP-14): The catalytic domain of MMP-14 was expressed in E. coli and was activated by autocatalysis^[24]. Preparation of the recombinant human ectodomain of Membrane-Type-1 MMP (ΔTM-MMP-14): The ectodomain of MMP-14 was expressed in Pichia Pastoris by the method of Roderfeld et al. and activated by yeast proteases (Furin-like-proteases) during maturation^[25].
(§2) The enzymatic activity was measured using a modified version of a resonance energy transfer fluorogenic assay as described^[26]. Progress curves were monitored by following the increase in fluorescence at 393 nm (λex = 328 nm), induced by the cleavage of the (7-methoxycoumarin-4-yl)acetyl-Pro-Leu-Gly-Leu-(3-[2,4-dinitro-phenyl]-L-2,3-diamino-propionyl)-Ala-Arg-NH2 (Mca-Pro-Leu-Gly-Leu-Dpa-Ala-Arg-NH2) fluorogenic substrate by MMPs. The fluorescent MCA-group is quenched by resonance energy transfer to the 2,4-dinitrophenyl group. Matrix metalloproteinases cleave this substrate at the Gly-Leu bond. Cleavage results in the loss of energy transfer and a large increase in fluorescence of the MCA group. This substrate is commercially available from Bachem, Switzerland.
(§3) Enzyme inhibition assays were carried out in MRB which consisted of 50 mM HEPES/NaOH, pH 7.0, 10 mM CaCl2 and 0,02% (w/v) PEG 8000 at 25°C. MMP microfluorometric profiling assay was done in white U-bottomed 96-well plates (Microfluor 1 White, Dynex, USA) with a final substrate concentration of 6 µM MCA-peptide, approximately 0.3 to 5 nM MMP with variable inhibitor concentrations and 2% DMSO vehicle. From a 1.5 mM stock (100% DMSO) the inhibitors were serially diluted with MRB to 15, 10, 5, 3, 1, 0.6, 0.3, 0.1, 0.05, 0.01 and 0.005 µM final assay concentration. Column 1, rows A through H, contained only DMSO for the "enzyme-only" wells in the assay. After preincubation for 30 min at 25°C the reaction was started by addition of substrate and the plate was read on a SpectraFluor Plus (Tecan, Germany) plate reader with excitation at 330 nm and emission at 405 nm with the gain set to 150. Each measurement was done in triplicate to ensure statistically significant results. […]

cdMMP-13 = cdMMP-13 (Homo sapiens, UniProt P45452); experiment: as above; format: biochemical; details: read-out: cdMMP-13 IC50
Description: as §1, §2, §3

MMP-1 = biological target: T2, MMP-1 (Homo sapiens, UniProt P03956); experiment: as above; format: biochemical
T2 construct: MMP-1 from human rheumatoid synovial fibroblasts was purchased; purchased Calbiochem-Novabiochem Corporation, LaJolla; host or cells: human rheumatoid synovial fibroblasts
T2 sequence (P03956 100-469): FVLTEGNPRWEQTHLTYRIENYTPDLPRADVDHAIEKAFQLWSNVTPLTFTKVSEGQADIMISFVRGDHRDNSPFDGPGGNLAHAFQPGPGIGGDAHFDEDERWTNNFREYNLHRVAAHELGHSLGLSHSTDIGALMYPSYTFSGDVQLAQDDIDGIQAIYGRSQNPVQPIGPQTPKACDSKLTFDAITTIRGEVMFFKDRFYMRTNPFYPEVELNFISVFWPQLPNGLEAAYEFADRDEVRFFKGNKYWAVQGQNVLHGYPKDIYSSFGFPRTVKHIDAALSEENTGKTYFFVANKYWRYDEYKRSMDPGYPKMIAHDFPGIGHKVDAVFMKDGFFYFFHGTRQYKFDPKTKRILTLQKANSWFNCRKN
Description: as §1, §2, §3

cdMMP-12 = biological target: T3, cdMMP-12 (Homo sapiens, UniProt P39900); experiment: as above; format: biochemical
T3 construct: The catalytic domain of MMP-12 was expressed in E. coli; made in house; host or cells: E. coli
T3 sequence (P39900 106-263 limits assumed): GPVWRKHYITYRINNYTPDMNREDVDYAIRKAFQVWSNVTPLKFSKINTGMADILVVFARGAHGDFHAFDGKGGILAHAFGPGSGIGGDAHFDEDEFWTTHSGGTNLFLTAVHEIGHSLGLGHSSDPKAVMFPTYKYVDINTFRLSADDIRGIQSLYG
Description: as §1, §2, §3

MMP-9 = biological target: T4, MMP-9 (Homo sapiens, UniProt P14780); experiment: as above; format: biochemical
T4 construct: from tissue; host or cells: human plasma buffy coat (PMNL)
T4 sequence (P14780 107-707 limits assumed): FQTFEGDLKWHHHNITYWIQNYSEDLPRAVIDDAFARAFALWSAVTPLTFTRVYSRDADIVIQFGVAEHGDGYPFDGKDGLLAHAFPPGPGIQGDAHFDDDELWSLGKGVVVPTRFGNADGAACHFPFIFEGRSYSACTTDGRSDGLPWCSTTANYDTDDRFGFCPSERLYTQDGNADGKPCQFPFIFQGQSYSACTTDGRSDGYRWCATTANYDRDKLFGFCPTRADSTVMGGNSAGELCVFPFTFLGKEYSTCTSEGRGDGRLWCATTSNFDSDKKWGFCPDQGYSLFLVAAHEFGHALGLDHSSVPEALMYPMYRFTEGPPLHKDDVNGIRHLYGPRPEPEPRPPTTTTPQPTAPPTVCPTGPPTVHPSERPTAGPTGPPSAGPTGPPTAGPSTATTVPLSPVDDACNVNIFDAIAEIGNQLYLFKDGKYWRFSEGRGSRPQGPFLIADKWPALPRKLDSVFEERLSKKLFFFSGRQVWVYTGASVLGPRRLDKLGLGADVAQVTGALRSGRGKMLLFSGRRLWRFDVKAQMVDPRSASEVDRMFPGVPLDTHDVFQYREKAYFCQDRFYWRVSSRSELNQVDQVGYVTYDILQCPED
Description: as §1, §2, §3

cdMMP-2 = cdMMP-2 (Homo sapiens, UniProt P08253); experiment: as above; format: biochemical; details: read-out: cdMMP-2 IC50
Sequence of cdMMP-2 (P08253 110-446): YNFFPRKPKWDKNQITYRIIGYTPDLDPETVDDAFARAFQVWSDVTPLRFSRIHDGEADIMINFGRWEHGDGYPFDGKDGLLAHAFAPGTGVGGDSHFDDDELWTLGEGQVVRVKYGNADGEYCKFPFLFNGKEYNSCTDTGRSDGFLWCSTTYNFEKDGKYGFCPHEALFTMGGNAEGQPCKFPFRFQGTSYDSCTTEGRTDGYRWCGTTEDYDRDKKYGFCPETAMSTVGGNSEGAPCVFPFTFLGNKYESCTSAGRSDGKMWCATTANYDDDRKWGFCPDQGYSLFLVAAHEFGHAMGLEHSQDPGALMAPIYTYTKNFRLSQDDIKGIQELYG
Description: The tested MMP enzymes were prepared more specifically in the laboratories of the applicants, with the exception of MMP-1. MMP-1 from human rheumatoid synovial fibroblasts was purchased from Calbiochem-Novabiochem Corporation, LaJolla. Preparation of the recombinant catalytic domain of human Gelatinase A (cdMMP-2): The catalytic domain of Pro-Gelatinase A was prepared using an E. coli expression system according to the method described by Kröger et al^[19]. The proenzyme was activated with 0.5 mM APMA at 37°C prior to use in the assay. […] Preparation of PMNL-Gelatinase (MMP-9): Latent PMNL-pro-Gelatinase was prepared from human plasma buffy coat as described by Tschesche et al^[21]. PMNL-pro-Gelatinase was activated prior to use by incubation with Trypsin at 37°C for 10 min. Inactivation of Trypsin was accomplished with TKI. […] The overexpressed protein was isolated as inclusion bodies and the renatured protein was purified by affinity chromatography with a hydroxamate inhibitor coupled column as described^[22]. Preparation of the recombinant catalytic domain of human Collagenase-3 (cdMMP-13): Human pro-cdMMP-13 was prepared using an E. coli expression system according to the method described^[23]. The isolated pro-cdMMP-13 was activated prior to use by incubation with 5 mM HgCl2 for 2 h at 37°C.
as §2
Enzyme inhibition assays were carried out in MRB which consisted of 50 mM HEPES/NaOH, pH 7.0, 10 mM CaCl2 and 0,02% (w/v) PEG 8000 at 25°C. MMP microfluorometric profiling assay was done in white U-bottomed 96-well plates (Microfluor 1 White, Dynex, USA) with a final substrate concentration of 6 µM MCA-peptide, approximately 0.3 to 5 nM MMP with variable inhibitor concentrations and 2% DMSO vehicle. From a 1.5 mM stock (100% DMSO) the inhibitors were serially diluted with MRB to 15, 10, 5, 3, 1, 0.6, 0.3, 0.1, 0.05, 0.01 and 0.005 µM final assay concentration. Column 1, rows A through H, contained only DMSO for the "enzyme-only" wells in the assay. After preincubation for 30 min at 25°C the reaction was started by addition of substrate and the plate was read on a SpectraFluor Plus (Tecan, Germany) plate reader with excitation at 330 nm and emission at 405 nm with the gain set to 150. Each measurement was done in triplicate to ensure statistically significant results. The experiment was further controlled for background fluorescence of the substrate, for fluorescence of fully cleaved substrate and for fluorescence quenching or augmentation from solutions containing the test compounds.
Datapoints from eight different MMPs generated on the SpectraFluor Plus were directly visualized on a master Excel spreadsheet. The response of inhibition was determinated for each inhibitor concentration by comparing the amount of hydrolysis (fluorescence units generated over 30 minutes of hydrolysis) of wells containing compound with the "enzyme-only" wells in column 1. With the program GraFit (Erithacus Software Limited) a 4 parameter logistic fit to the dose-response data was used to calculate IC50 values for each compound.

MMPs = experiment: Ki determination in microfluorometric assay (Cheng-Prusoff, enzyme not specified); format: biochemical, human; details: enzyme not given
Description: as §2
Enzyme inhibition assays were carried out in MRB which consisted of 50 mM HEPES/NaOH, pH 7.0, 10 mM CaCl2 and 0,02% (w/v) PEG 8000 at 25°C. […] After preincubation for 30 min at 25°C the reaction was started by addition of substrate and the plate was read on a SpectraFluor Plus (Tecan, Germany) plate reader with excitation at 330 nm and emission at 405 nm with the gain set to 150. […] The experiment was further controlled for background fluorescence of the substrate, for fluorescence of fully cleaved substrate and for fluorescence quenching or augmentation from solutions containing the test compounds. […]

IC50 (cdMMP-14)	IC50 (cdMMP-13)	IC50 (MMP-1)	IC50 (cdMMP-12)	IC50 (MMP-9)	IC50 (cdMMP-2)	Ki (MMPs)	SMILES
839 nM	1170 nM	500 nM	338 nM	684 nM	743 nM	–	C[C@H](NS(=O)(=O)c1ccccc1)C(=O)NC1=NN=C(c2ccc(F)cc2)CS1 [Example 13, (2S)-N-[5-(4-Fluorophenyl)-6H-1,3,4-thiadiazin-2-yl]-2-[(phenylsulfonyl)amino]-propanamide]
–	–	–	–	–	–	~100 nM	CC(C)(NS(=O)(=O)c1ccccc1)C(=O)NC1=NN=C(c2ccc(Cl)cc2)CS1 [Example 20, N-[5-(4-Chlorophenyl)-6H-1,3,4-thiadiazin-2-yl]-2-methyl-2-[(phenylsulfonyl)-amino]propanamide]
